Test results from article PMC10314922, “Fluorescence lifetime FRET assay for live-cell high-throughput screening of the cardiac SERCA pump yields multiple classes of small-molecule allosteric modulators” (Scientific Reports, 2023).
Values joined by “and” are separate entries in the source; they are usually repeats but may differ in a detail not shown here. Equal entries are not always repeated. “Also recorded” adds a separate entry of the source.

Columns and labels:
[1] = molecular target: T1, human two-color SERCA2a (2CS) biosensor (Homo sapiens, UniProt P16615, INS508[…]); test: FRET concentration response curves (FLT-FRET) with the 2CS biosensor in live HEK cells; assay type: cell-based
T1 construct: expressed in transfected cells
T1 sequence (P16615 other isoform, or with tags, fused parts or gaps with the stated changes): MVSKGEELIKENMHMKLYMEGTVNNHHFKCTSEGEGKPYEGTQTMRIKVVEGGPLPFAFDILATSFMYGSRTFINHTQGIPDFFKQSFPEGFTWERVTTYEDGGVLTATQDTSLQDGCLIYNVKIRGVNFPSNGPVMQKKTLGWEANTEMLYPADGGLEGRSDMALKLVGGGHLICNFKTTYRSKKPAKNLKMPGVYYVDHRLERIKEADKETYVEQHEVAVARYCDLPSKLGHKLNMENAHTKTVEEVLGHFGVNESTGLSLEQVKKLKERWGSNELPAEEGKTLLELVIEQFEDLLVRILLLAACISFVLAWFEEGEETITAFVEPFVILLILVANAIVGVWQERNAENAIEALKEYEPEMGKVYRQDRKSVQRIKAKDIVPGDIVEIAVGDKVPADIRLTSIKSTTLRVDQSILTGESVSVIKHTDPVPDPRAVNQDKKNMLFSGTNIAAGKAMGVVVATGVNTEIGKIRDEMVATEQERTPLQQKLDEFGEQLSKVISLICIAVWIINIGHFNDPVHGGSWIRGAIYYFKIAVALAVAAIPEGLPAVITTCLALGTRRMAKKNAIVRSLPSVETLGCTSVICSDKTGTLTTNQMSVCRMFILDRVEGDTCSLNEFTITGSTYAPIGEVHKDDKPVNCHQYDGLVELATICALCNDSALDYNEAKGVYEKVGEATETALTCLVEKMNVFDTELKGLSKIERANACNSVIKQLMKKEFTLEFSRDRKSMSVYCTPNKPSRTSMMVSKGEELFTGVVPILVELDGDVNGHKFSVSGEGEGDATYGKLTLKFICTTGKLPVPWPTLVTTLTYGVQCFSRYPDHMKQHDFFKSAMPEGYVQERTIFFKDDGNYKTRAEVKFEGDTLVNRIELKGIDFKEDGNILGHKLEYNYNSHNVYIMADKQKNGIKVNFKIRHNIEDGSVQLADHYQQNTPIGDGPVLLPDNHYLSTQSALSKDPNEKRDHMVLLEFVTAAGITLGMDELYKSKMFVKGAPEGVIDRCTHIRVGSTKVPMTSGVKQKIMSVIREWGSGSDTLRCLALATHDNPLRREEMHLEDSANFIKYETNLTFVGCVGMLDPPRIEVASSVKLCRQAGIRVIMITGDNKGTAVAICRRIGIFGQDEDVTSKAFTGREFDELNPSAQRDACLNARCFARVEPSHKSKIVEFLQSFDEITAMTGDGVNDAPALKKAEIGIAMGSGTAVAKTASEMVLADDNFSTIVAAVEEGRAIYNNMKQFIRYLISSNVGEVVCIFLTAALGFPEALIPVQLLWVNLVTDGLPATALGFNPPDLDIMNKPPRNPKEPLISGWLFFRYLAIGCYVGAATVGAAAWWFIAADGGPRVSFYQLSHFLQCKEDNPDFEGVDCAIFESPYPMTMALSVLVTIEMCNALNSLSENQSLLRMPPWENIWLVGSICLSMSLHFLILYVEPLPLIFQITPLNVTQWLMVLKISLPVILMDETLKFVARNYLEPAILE
Description: A two-color intramolecular human SERCA2a (2CS) biosensor, based on human cardiac SERCA2a fused to green fluorescent protein (eGFP) and red fluorescent protein (tagRFP) was developed to detect structural changes that are related to the functional changes of SERCA[20],[22],[25]. Briefly, tagRFP was genetically fused to the N-terminus of SERCA (A-domain) and eGFP was inserted as an intrasequence tag before residue 509 in the nucleotide-binding domain (N-domain)[60],[61]. Donor-only and acceptor-only (1CS) biosensors were created in a similar manner as the 2CS biosensor but with the construct containing either only eGFP or only tag-RFP, respectively. […] A null-biosensor construct consisting of eGFP and tagRFP connected by a 32-residue unstructured flexible linker peptide (G32R) was created as described previously[23],[25]. All constructs were cloned into expression vectors containing the genes for antibiotic resistance to G418, puromycin, or blasticidin.
Stable cell lines were generated using either human embryonic kidney (HEK) HEK293 (ATCC, Manassas, VA) or HEK293-6E (National Research Council, Canada) cells. Briefly, cells were transiently transfected with 2CS, 1CS, or G32R null-biosensor plasmids using Lipofecatime 3000 or 293fectin (Thermo Fisher Scientific). Flow cytometry was used to select and enrich for the population of cells expressing respective biosensors. Stable HEK293 cell lines were maintained in phenol red-free DMEM media (Gibco, Waltham, MA) supplemented with 2 mM GlutaMAX (Gibco, Waltham, MA), 10% fetal bovine serum (FBS) (Atlanta Biologicals, Lawrenceville, GA), 1 IU/mL penicillin/streptomycin (Gibco, Waltham, MA), and 250 μg/mL G418 (Fisher Scientific). Stable HEK293-6E cell lines were maintained in F17 media (Sigma Aldrich) supplemented with Kolliphor p188 (Sigma Aldrich, St. Louis, MO), […] GlutaMAX, and either 1 μg/mL puromycin (Invitrogen, Carlsbad, CA) or 2 μg/mL blasticidin (Goldbio) as a selection antibiotic. All cell lines were grown at 37 °C with 5% CO2.
FRET CRC assay plates (0.78–100 μM compound range) with at least ten different compound concentrations were made by adding the appropriate volume of compound or DMSO into black 384 well plates (Greiner Bio-One) using a Mosquito HV (SPTLabTech, United Kingdom). Subsequent Ca^2+-ATPase activity and Ca^2+-transport CRC assay plates (0–50 μM compound range) with repurchased compounds were made in a similar manner using with the Echo 550 (Beckman Coulter) using either 384 well transparent plates (Greiner Bio-One) or black-walled plates with transparent bottoms (Greiner Bio-One), respectively.
On each day of screening, cells were harvested, washed three times with PBS, and centrifuged at 300 g for 5 min. Cells were filtered using a 70 µm cell strainer and diluted to 1–2 × 10^6 cells/mL. Cell concentration and viability were assessed using the Cell countess (Invitrogen) and trypan blue assay. During assays, cells were constantly and gently stirred using a magnetic stir bar at room temperature, keeping the cells in suspension and evenly distributed to avoid clumping. HEK 293-cells expressing 2CS were dispensed at 5 μL or […] per well into assay plates (dispensed into 40 assay plates, each containing 1536 wells) pre-plated with compounds (from a DIVERset 50,000 compound library) using a Multdrop Combi liquid dispenser (Thermo Fisher Scientific, Pittsburg, PA) and sealed until needed. Because the kinetics of membrane permeability, diffusion, and/or binding of the compound to live cells may be compound-dependent, we tested two incubation times, 20 min and 120 min, for the FRET CRC. […] Plates containing eight-point concentration curves of three tool compounds (known SERCA effectors thapsigargin, BHQ, and CPA)[22] were used as positive controls for biosensor function and performance prior to running the full-scale FRET-HTS assay. […]

SERCA2a [2] = molecular target: T2, SERCA2a (Sus scrofa, UniProt P11607); test: NADH-linked Ca2+-ATPase activity assay in pig cardiac SR (pCSR) vesicles; assay type: biochemical; conditions: for Ca2+-ATPase C10: concentration yielding 10% effect; for Ca2+-ATPase ΔFMAX / Ca2+-ATPase ΔFMID: maximal compound effect vs DMSO control, pCSR; for Effect on Ca2+-ATPase activity (category, Fig. 4A): activators, categories activate / uncouple / inhibit
T2 construct: Cardiac SR vesicles were isolated from fresh porcine left ventricular tissue using differential centrifugation; from tissue; host or cells: porcine left ventricular tissue (cardiac SR vesicles)
T2 sequence (P11607 1-997 isoform P11607-2): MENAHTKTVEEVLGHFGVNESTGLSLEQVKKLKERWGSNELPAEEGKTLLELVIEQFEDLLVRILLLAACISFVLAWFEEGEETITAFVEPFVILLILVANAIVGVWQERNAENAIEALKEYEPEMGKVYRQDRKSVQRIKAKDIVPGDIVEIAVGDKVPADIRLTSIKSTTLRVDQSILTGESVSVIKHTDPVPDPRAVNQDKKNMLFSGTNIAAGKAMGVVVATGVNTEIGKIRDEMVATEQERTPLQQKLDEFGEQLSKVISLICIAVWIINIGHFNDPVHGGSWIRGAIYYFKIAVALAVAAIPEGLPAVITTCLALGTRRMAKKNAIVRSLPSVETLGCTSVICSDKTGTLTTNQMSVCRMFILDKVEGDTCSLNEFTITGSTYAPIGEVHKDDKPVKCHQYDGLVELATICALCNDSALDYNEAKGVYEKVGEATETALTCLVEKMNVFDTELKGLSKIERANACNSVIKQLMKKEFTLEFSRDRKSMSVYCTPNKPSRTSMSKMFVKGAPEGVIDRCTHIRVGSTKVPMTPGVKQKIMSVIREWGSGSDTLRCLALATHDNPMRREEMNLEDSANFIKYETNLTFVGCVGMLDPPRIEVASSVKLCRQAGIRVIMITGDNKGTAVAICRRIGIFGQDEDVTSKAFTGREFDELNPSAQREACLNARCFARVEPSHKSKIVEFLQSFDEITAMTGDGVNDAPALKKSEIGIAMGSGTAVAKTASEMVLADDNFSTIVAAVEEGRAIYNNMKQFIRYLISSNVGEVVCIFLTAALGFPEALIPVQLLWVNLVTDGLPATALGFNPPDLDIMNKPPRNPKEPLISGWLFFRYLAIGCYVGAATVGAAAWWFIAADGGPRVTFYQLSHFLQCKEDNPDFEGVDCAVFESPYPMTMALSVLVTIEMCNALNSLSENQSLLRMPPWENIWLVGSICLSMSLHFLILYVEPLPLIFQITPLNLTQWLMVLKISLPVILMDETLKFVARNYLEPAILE
Description: (§1) Cardiac SR vesicles were isolated from fresh porcine left ventricular tissue using differential centrifugation of the homogenized tissue as previously described. The SR vesicles were flash-frozen and stored at − 80 °C until needed. The SERCA concentration in the ER preparations purified from HEK cell homogenate is at least 10 times less than in purified porcine cardiac SR[20], but there was sufficient expression of the fluorescent SERCA2a biosensor in HEK cells to detect FRET with high precision by FLT[22],[23],[26].
Functional assays were performed using porcine cardiac SR (pCSR) vesicles. An enzyme-coupled, NADH-linked ATPase assay was used to measure SERCA ATPase activity in 384-well microplates. Each well contained 50 mM MOPS (pH 7.0), 100 mM KCl, 1 mM EGTA, 0.2 mM NADH, 1 mM phosphoenol pyruvate, 10 IU/mL of pyruvate kinase, 10 IU/mL of lactate dehydrogenase, 7 µM of the calcium ionophore A23187 (Sigma), and CaCl2 was added to set free [Ca^2+] to three different concentrations. Ca^2+-ATPase activity was measured at three [Ca^2+]: [Ca^2+]MAX (saturating, pCa 5.4), [Ca^2+]MID (subsaturating, midpoint, pCa 6.2), and [Ca^2+]BAS (basal non-activating, pCa 8.0). 10 μg/mL of SR vesicle, calcium, compound (0.048 to 50 μM), and assay mix were incubated for 20 min at room temperature before measurement of functional assays with each of the 18 hit compounds, because a shorter incubation time than the FRET live-cell assays achieved optimal responses. The assay was started upon the addition of MgATP, at a final concentration of 5 mM (total volume to 80 μL), and absorbance was read at 340 nm in a SpectraMax Plus^384 microplate spectrophotometer (Molecular Devices, Sunnyvale, CA).
(§2) SERCA2a activity, F (rate of ATP hydrolysis or Ca^2+ uptake), was measured at varying pCa and varying compound concentration. F measured at [Ca^2+]MAX (saturating, pCa 5.4) or [Ca^2+]MID (subsaturating, midpoint, pCa 6.2) was corrected by subtracting the basal rate at pCa 8.0) and the % effect due to compound was reported. Concentration response curves (CRC) were fitted using the Hill function to determine VMAX (the activity at saturating [compound]), and EC50, the compound concentration at 50% effect.

SERCA2a [3] = molecular target: T2, SERCA2a; test: Oxalate-supported Fluo-4 Ca2+-uptake (Ca2+-transport) assay in pig cardiac SR (pCSR) vesicles; assay type: biochemical; conditions: for Ca2+-Uptake C10: concentration yielding 10% effect; for CR (coupling ratio) VU/VA: maximum Ca2+-uptake rate / Ca2+-ATPase rate at [Ca2+]MAX, DMSO control = 0.66; for Inhibition of Ca2+-uptake (class): strong / moderate / mild; for Ca2+-Uptake ΔFMAX / Ca2+-Uptake ΔFMID: maximal compound effect vs DMSO control, pCSR; for Effect on Ca2+-uptake (category, Fig. 4A): activators, categories activate / uncouple / inhibit; for Increase in Ca2+-uptake: over [Ca2+]MAX and [Ca2+]MID
Description: as §1
Ca^2+-transport assays were performed with similar porcine SR samples as in the Ca^2+-ATPase assays described above. The compound effect on the Ca^2+-transport activity of SERCA2a was determined using an oxalate-supported assay in which the change in fluorescence in a Ca^2+-sensitive dye, Fluor-4, was determined as previously described. A buffered solution containing 50 mM MOPS (pH 7.0), 100 mM KCl, 30 mg/mL sucrose, 1 mM EGTA, 10 mM potassium oxalate, 2 µM Fluo-4, 30 µg/mL porcine cardiac SR vesicles, CaCl2 calculated to reach the free [Ca^2+] (pCa 8.0, 6.2, and 5.4), and compound (0.048 to 50 μM) was dispensed into 384-well black walled, transparent bottomed plates (Greiner Bio-One) containing the tested small molecule and incubated at 22℃ for 20 min while covered and protected from light. To start the reaction, MgATP was added to a final concentration of 5 mM, and the decrease in 485-nm excited fluorescence of Fluo-4 was monitored at 520 nm for 15 min using a FLIPR Tetra (Molecular Devices, San Jose, CA).
as §2

[4] = both [Ca2+], stated as size of decrease

SMILES	EC50 [1]	Ca2+-ATPase C10 (SERCA2a [2]; [Ca2+]MAX (pCa5.4))	Ca2+-ATPase C10 (SERCA2a [2]; [Ca2+]MID (pCa6.2))	Ca2+-Uptake C10 (SERCA2a [3]; [Ca2+]MAX (pCa5.4))	Ca2+-Uptake C10 (SERCA2a [3]; [Ca2+]MID (pCa6.2))	CR (coupling ratio) VU/VA (SERCA2a [3])	Inhibition of Ca2+-uptake (class) (SERCA2a [3])	Ca2+-ATPase ΔFMAX (SERCA2a [2]; [Ca2+]MAX (pCa5.4))	Ca2+-ATPase ΔFMID (SERCA2a [2]; [Ca2+]MID (pCa6.2))	Effect on Ca2+-ATPase activity (category, Fig. 4A) (SERCA2a [2])	Ca2+-Uptake ΔFMID (SERCA2a [3]; [Ca2+]MID (pCa6.2))	Effect on Ca2+-uptake (category, Fig. 4A) (SERCA2a [3])	also measured
COc1ccc(Cn2cc(C(=O)N(C)Cc3ccnc4ccccc34)nn2)cc1 [Compound 10, 1-(4-methoxybenzyl)-N-methyl-N-(4-quinolinylmethyl)-1H-1,2,3-triazole-4-carboxamide]	5.6 ± 0.6 µM	7 µM	3.2 µM	4.1 µM	7.9 µM	0.35	Mild → M; also recorded: mild-to-moderate						
Cc1nc(N2CCCCCCC2)ncc1C(C)NC(=O)c1ccnn1C (centres unmarked) [Compound 18, N-{1-[2-(1-azocanyl)-4-methyl-5-pyrimidinyl]ethyl}-1-methyl-1H-pyrazole-5-carboxamide]	3 ± 0.3 µM	2.2 µM	1 µM	8.6 µM	22.7 µM	0.49	Mild → M; also recorded: mild-to-moderate						EC50 (SERCA2a [2]; [Ca2+]MID (pCa6.2)): 0.18 ± 0.2 µM
OCC1(CCOc2ccccc2)CCCN(Cc2cc3c(cc2Cl)OCO3)C1 (centres unmarked) [Compound 13, [1-[(6-chloro-1,3-benzodioxol-5-yl)methyl]-3-(2-phenoxyethyl)-3-piperidinyl]methanol]	9.9 ± 2.1 µM	1 µM	1.6 µM	0.5 µM	1.0 µM								EC50 (SERCA2a [3]; [Ca2+]MAX (pCa5.4)): 3.6 ± 0.1 µM; EC50 (SERCA2a [3]; [Ca2+]MID (pCa6.2)): 6.4 ± 0.2 µM
CCC(C)(C)c1nnc(NC(=O)NCc2ccc(F)cc2F)s1 [Compound 15, N-(2,4-difluorobenzyl)-N'-[5-(1,1-dimethylpropyl)-1,3,4-thiadiazol-2-yl]urea]	16 ± 4.7 µM	0.7 µM	0.4 µM	0.9 µM	1.7 µM	0.19							Decrease of ΔFMAX and ΔFMID for Ca2+-ATPase activity (SERCA2a [2]; [4]): ~ 50%; Decrease of ΔFMAX and ΔFMID for Ca2+-uptake (SERCA2a [3]; [4]): 70–95%
CC1Cc2cc(CNC(=O)c3cc(C(C)C)nn3C)ccc2O1 (centres unmarked) [Compound 9, 3-isopropyl-1-methyl-N-[(2-methyl-2,3-dihydro-1-benzofuran-5-yl)methyl]-1H-pyrazole-5-carboxamide]	0.6 ± 0.1 µM	30.7 µM				0.51		21% and 21 ± 5%	10% and 10 ± 6%	activate	3 ± 2.4%	uncouple	EC50 (SERCA2a [2]; [Ca2+]MAX (pCa5.4)): 24 ± 9 µM; Ca2+-Uptake ΔFMAX (SERCA2a [3]; [Ca2+]MAX (pCa5.4)): 5 ± 2.2%; Increase in Ca2+-uptake (SERCA2a [3]): 3–5% and 0.5–10%
O=C(c1cc(COc2ccc3c(c2)CCCC3)on1)N1CCC(c2ccncc2)CC1 [Compound 3, 4-[1-({5-[(5,6,7,8-tetrahydro-2-naphthalenyloxy)methyl]-3-isoxazolyl}carbonyl)-4-piperidinyl]pyridine]	1.6 ± 0.2 µM	11.0 µM	14.8 µM	17.5 µM		0.39		21 ± 5.1%	30 ± 11%	activate	6% and 6 ± 3.3%	inhibit	Increase in Ca2+-ATPase activity (SERCA2a [2]): 10–25%; EC50 (SERCA2a [2]; [Ca2+]MAX (pCa5.4)): 8.4 ± 3.1 µM; Decrease (inhibition) of Ca2+-uptake at [Ca2+]MAX (SERCA2a [3]; [Ca2+]MAX, size of decrease): 20%
O=C(c1cc(COc2ccc3ncccc3c2)on1)N1CCC(c2ccncc2)CC1 [Compound 2, 6-[(3-{[4-(4-pyridinyl)-1-piperidinyl]carbonyl}-5-isoxazolyl)methoxy]quinoline]	1.4 ± 0.5 µM	48 µM				0.53		16% and 16 ± 3%	7% and 7 ± 3%	activate	4 ± 2.1%	uncouple	Ca2+-Uptake ΔFMAX (SERCA2a [3]; [Ca2+]MAX (pCa5.4)): 4 ± 6.1%; Increase in Ca2+-uptake (SERCA2a [3]): 0.5–10%
CCc1cnc(N2CC[C@@H](c3ccc4ccccc4c3)[C@H](O)C2)nc1 (relative stereo) [Compound 16, (3S*,4S*)-1-(5-ethylpyrimidin-2-yl)-4-(2-naphthyl)piperidin-3-ol]	5.6 ± 0.3 µM	0.5 µM	4.7 µM	1.2 µM	4.2 µM	0.22	M → S; also recorded: moderate-to-strong						
